In patent US7985771B2, “Furanone derivatives” (Monsanto Technology LLC, priority 2002, dated 2011):
pEC50: −log10 of the molar value.

Experiments:
[1] = system: IL-1beta release from a mouse microglial cell line; test: Interleukin-1 beta microglial cell assay; type: cell-based; settings: LPS and IFN gamma stimulation, 24 hours, read-out: inhibition of IL-1beta induction, EC50
Method: This assay measures the release of IL-1β from a mouse microglial cell line following an inflammatory challenge with LPS and interferon-gamma. The ability of test articles to inhibit microglial cell activation and IL-1beta release is determined by co-incubation of the test article with the inflammatory challenge. Cytokine release is measured using a mouse IL-1β ELISA and cell toxicity is determined using Cell Tracker Green (a fluorescent dye that measures cell viability).
Mouse microglial cells were seeded in poly-D-lysine coated 96-well plates at a density of 10,000 cells/well and allowed to attach for 24 hours. Cells were stimulated by addition of LPS (10 μg/ml) and IFN gamma (10 ng/ml) in the presence or absence of test article. The cells were then incubated for 24 hours at 37° C., after which time the media was removed and used for cytokine determination as described below.
Viability of mouse microglial cells after exposure to the test article was determined using a fluorescent viability dye, Cell Tracker Green. Cell Tracker Green was used at a working concentration of 5 μM in 1× HBSS. Cells were washed once with HBSS (200 μl/well) and 100 μl Cell Tracker Green was added to each well. Cells were then incubated at 37° C. for 30 minutes, after which time the Cell Tracker was removed and the cells were washed once with HBSS (200 μl/well). 100 μl fresh HBSS was added to each well and the plate was read on a Fluoroskan plate reader using an excitation wavelength of 485 nm and an emission wavelength of 538 nm.
1. The IL-1β capture antibody was reconstituted in 1 ml of PBS to give a final concentration of 720 μg/ml, and the working concentration was 4 μg/ml. For coating one 96-well plate (at 100 μl/well) 56 μl of the 720 μg/ml stock was diluted into 10 ml of PBS. 2. The IL-1β standards were reconstituted in 0.5 ml of Reagent Diluent (70 ng/ml). For a high standard of 1 ng/ml (2 wells at 100 μl each+enough for series dilution) 7.1 μl of the 70 ng/ml standard were diluted into 0.5 ml of Reagent Diluent 3. The IL-1β detection antibody was reconstituted in 1 ml of Reagent Diluent to give a final concentration of 18 μg/ml and the working concentration is 100 ng/ml. For one 96-well plate (at 100 μl/well) 56 μl of the 18 μg/ml stock was diluted into 10 ml of Reagent Diluent.
1. The Costar EIA Hi-binding plate was coated with capture antibody at 4 μg/ml. Each well was coated with 100 μl, and the plate was sealed and incubated overnight at room temperature.
2. Each well was aspirated and washed 3× with Wash Buffer. Each well was filled to the top, dispensed, and any remaining buffer was removed by inverting the plate and gently blotting against clean paper towels.
3. Non-specific binding sites were blocked by adding 300 μl of Blocking Buffer to each well, and after sealing incubating for at least 1 hour at room temperature.
5. 100 μl of either standard or sample were added in each well of the capture-coated and pre-blocked plate. The plate was sealed and incubated for 2 hours at room temperature, followed with washing as in step 2.
6. 100 μl of the detection antibody ([…]) were added to each well.
7. The plate was sealed and incubated at room temperature for 2 hours, followed with washing as in step 2.
8. 100 μl of the working dilution of Streptavidin-HRP was added, and the plate was sealed and incubated in the dark for 20 minutes at room temperature, followed with washing as in Step 2.
9. The fresh Substrate Solution was prepared by mixing Color Reagent A (H2O2) and Color Reagent B (Tetramethylbenzidine) in a 1:1 ratio. 100 μl of this Substrate Solution mixture was added to each well and the plate was incubated in the dark for 20 minutes at room temperature. 10. 50 μl of Stop Solution was added to each well, mixing was ensured by gently tapping. 11. Each plate was read with the Spectramax once at 450 nm. Results

[2] = system: ELAM (E-selectin) expression in endothelial cells; test: E-selectin (ELAM) cell inflammation assay; type: cell-based; settings: LPS and IL-1β stimulation, read-out: reduction of expression of ELAM, EC50
Method: Endothelial-Leukocyte Adhesion Molecule (ELAM), also known as E-selectin, is expressed on the surface of endothelial cells. In this assay, lipopolysaccharide (LPS) and IL-1β are used to stimulate the expression of ELAM; test agents are tested for their abilities to reduce this expression, in accordance with studies showing that reduction of leukocyte adhesion to endothelial cell surface is associated with decreased cellular damage (e.g., Takada, M., Et al., Transplantation 64: 1520-25, 1997; Steinberg, J. B., et al., J. Heart Lung Trans. 13:306-313, 1994).
Endothelial cells may be selected from any of a number of sources and cultured according to methods known in the art; including, for example, coronary artery endothelial cells, human brain microvascular endothelial cells (HBMEC; Hess, D.C., et al., Neurosci. Left. 213(1): 37-40, 1996), or lung endothelial cells. Cells are conveniently cultured in 96-well plates. Cells are stimulated by adding a solution to each well containing 10 μg/ml LPS and 100 pg/ml IL-1β for 6 hours in the presence of test agent (specific concentrations and time may be adjusted depending on the cell type). Treatment buffer is removed and replaced with pre-warmed Fixing Solution® (100 μl/well) for 25 minutes at room temperature. Cells are then washed 3×, then incubated with Blocking Buffer (PBS+2% FBS) for 25 minutes at room temperature. Blocking Buffer containing Monoclonal E-Selectin Antibody (1:750, Sigma Catalog #S-9555) is added to each well. Plates are sealed and stored at 4° overnight. Plates are washed 4× with 160 μL Blocking Buffer per well. Second Antibody-HRP diluted 1:5000 in Blocking Buffer is then added (100 μL/well), and plates are incubated at room temperature (protected from light) for two hours. Plates are then washed 4× with Blocking Buffer before addition of 100 μL of ABTS Substrate solution at room temperature (Zymed, Catalog #00-2024). Wells are allowed to develop for 35 minutes, before measurement at 402 nm in a Fluoroskan® Reader with shake program for 10 seconds. Positive results are recorded as a decrease in ELAM concentration in tested wells, as compared to control wells.

| SMILES | pEC50 [1] | pEC50 [2] |
| --- | --- | --- |
| CCOC(=O)C1(C[S+]([O-])c2nc3ccccc3s2)OC(=O)C(O)=C1Sc1nc2ccccc2s1 (stereo not drawn) [2-(Benzothiazole-2-sulfinylmethyl)-3-(benzothiazol-2-ylsulfanyl)-4-hydroxy-5-oxo-2,5-dihydro-furan-2-carboxylic acid ethyl ester] | ≥ 4.70 | ≥ 4.52 |
| CCOC(=O)C1(CSCc2ccc(Cl)cc2Cl)OC(=O)C(O)=C1SCc1ccc(Cl)cc1Cl (stereo not drawn) [3-(2,4-Dichloro-benzylsulfanyl)-2-(2,4-dichloro-benzylsulfanylmethyl)-4-hydroxy-5-oxo-2,5-dihydro-furan-2-carboxylic acid ethyl ester] | ≥ 4.70 | ≥ 4.52 |
| CCOC(=O)C1(CSc2ccc(F)cc2Cl)OC(=O)C(O)=C1Sc1ccc(F)cc1Cl (stereo not drawn) [3-(2-Chloro-4-fluoro-phenylsulfanyl)-2-(2-chloro-4-fluoro-phenylsulfanylmethyl)-4-hydroxy-5-oxo-2,5-dihydro-furan-2-carboxylic acid ethyl ester] | ≥ 4.70 | ≥ 4.52 |
| CCOC(=O)C1(C(=O)OCC)OC(=O)C(O)=C1SCc1ccc(F)cc1 [3-(4-Fluoro-benzylsulfanyl)-4-hydroxy-5-oxo-5H-furan-2,2-dicarboxylic acid diethyl ester] | ≥ 4.70 | ≥ 4.52 |
| COC(=O)C1(CSc2nc3ccccc3s2)OC(=O)C(O)=C1Sc1nc2ccccc2o1 (stereo not drawn) [3-(Benzooxazol-2-ylsulfanyl)-2-(benzothiazol-2-ylsulfanylmethyl)-4-hydroxy-5-oxo-2,5-dihydro-furan-2-carboxylic acid methyl ester] | ≥ 4.70 |  |
| CCOC(=O)C1(CSc2nc3ccccc3[se]2)OC(=O)C(O)=C1Sc1nc2ccccc2[se]1 (stereo not drawn) [3-(Benzoselenazol-2-ylsulfanyl)-2-(benzoselenazol-2-ylsulfanylmethyl)-4-hydroxy-5-oxo-2,5-dihydro-furan-2-carboxylic acid ethyl ester] | ≥ 4.70 | ≥ 4.52 |
| CCOC(=O)C1(CSc2nc3ccccc3s2)OC(=O)C(O)=C1Sc1nc2ccccc2s1 (stereo not drawn) [3-(Benzothiazol-2-ylsulfanyl)-2-(benzothiazol-2-ylsulfanylmethyl)-4-hydroxy-5-oxo-2,5-dihydro-furan-2-carboxylic acid ethyl ester] | ≥ 4.70 | ≥ 4.52 |
| CCOC(=O)C1(CSc2nccc(C)n2)OC(=O)C(O)=C1Sc1nccc(C)n1 (stereo not drawn) [4-Hydroxy-3-(4-methyl-pyrimidin-2-ylsulfanyl)-2-(4-methyl-pyrimidin-2-ylsulfanylmethyl)-5-oxo-2,5-dihydro-furan-2-carboxylic acid ethyl ester] | ≥ 4.70 |  |

The next lines start with the values.

| pEC50 [1] | pEC50 [2] | SMILES |
| --- | --- | --- |
| ≥ 4.70 | ≥ 4.52 | CCOC(=O)C1(CSc2nc3ccccc3[nH]2)OC(=O)C(OCC)=C1Sc1nc2ccccc2n1CC (stereo not drawn) [2-(1H-Benzoimidazol-2-ylsulfanylmethyl)-4-ethoxy-3-(1-ethyl-1H-benzoimidazol-2-ylsulfanyl)-5-oxo-2,5-dihydro-furan-2-carboxylic acid ethyl ester] |
| ≥ 4.70 | ≥ 4.52 | CCOC(=O)C1(CSCc2c(F)cccc2Cl)OC(=O)C(O)=C1SCc1c(F)cccc1Cl (stereo not drawn) [3-(2-Chloro-6-fluoro-benzylsulfanyl)-2-(2-chloro-6-fluoro-benzylsulfanylmethyl)-4-hydroxy-5-oxo-2,5-dihydro-furan-2-carboxylic acid ethyl ester] |
| ≥ 4.70 | ≥ 4.52 | CC(C)OC(=O)C1(CSc2nc3ccccc3s2)OC(=O)C(O)=C1Sc1nc2ccccc2s1 (stereo not drawn) [3-(Benzothiazol-2-ylsulfanyl)-2-(benzothiazol-2-ylsulfanylmethyl)-4-hydroxy-5-oxo-2,5-dihydro-furan-2-carboxylic acid isopropyl ester] |
| ≥ 4.70 | ≥ 4.52 | CCOC(=O)C1(C[S+]([O-])Cc2ccco2)OC(=O)C(O)=C1[S+]([O-])Cc1ccco1 (stereo not drawn) [3-(Furan-2-ylmethanesulfinyl)-2-(furan-2-ylmethanesulfinylmethyl)-4-hydroxy-5-oxo-2,5-dihydro-furan-2-carboxylic acid ethyl ester] |
| ≥ 4.70 |  | CCOC(=O)C1(CSCc2ccco2)OC(=O)C(O)=C1SCc1ccco1 (stereo not drawn) [3-(Furan-2-ylmethylsulfanyl)-2-(furan-2-ylmethylsulfanylmethyl)-4-hydroxy-5-oxo-2,5-dihydro-furan-2-carboxylic acid ethyl ester] |
| ≥ 4.70 | ≥ 4.52 | CCOC(=O)C1(CSCc2ccco2)OC(=O)C(OC(=O)C(C)C)=C1SCc1ccco1 (stereo not drawn) [3-(Furan-2-ylmethylsulfanyl)-2-(furan-2-ylmethylsulfanylmethyl)-4-isobutyryloxy-5-oxo-2,5-dihydro-furan-2-carboxylic acid ethyl ester] |
| ≥ 4.70 |  | CCCCSCC1(C(=O)OCC)OC(=O)C(O)=C1SCCCC (stereo not drawn) [3-Butylsulfanyl-2-butylsulfanylmethyl-4-hydroxy-5-oxo-2,5-dihydro-furan-2-carboxylic acid ethyl ester] |
| ≥ 4.70 |  | CCOC(=O)C1(CSCc2ccco2)OC(=O)C(OC(=O)C(C)(C)C)=C1SCc1ccco1 (stereo not drawn) [4-(2,2-Dimethyl-propionyloxy)-3-(furan-2-ylmethylsulfanyl)-2-(furan-2-ylmethylsulfanylmethyl)-5-oxo-2,5-dihydro-furan-2-carboxylic acid ethyl ester] |
| ≥ 4.70 |  | O=C1OC(CO)(CSc2nc3ccccc3o2)C(Sc2nc3ccccc3o2)=C1O (stereo not drawn) [4-(Benzooxazol-2-ylsulfanyl)-5-(benzooxazol-2-ylsulfanylmethyl)-3-hydroxy-5-hydroxymethyl-5H-furan-2-one] |
| ≥ 4.70 |  | CCOC(=O)C1(CSCc2ccc(OC)cc2)OC(=O)C(O)=C1SCc1ccc(OC)cc1 (stereo not drawn) [4-Hydroxy-3-(4-methoxy-benzylsulfanyl)-2-(4-methoxy-benzylsulfanylmethyl)-5-oxo-2,5-dihydro-furan-2-carboxylic acid ethyl ester] |
| ≥ 4.70 |  | CCOC(=O)C1(CSc2ncccn2)OC(=O)C(O)=C1Sc1ncccn1 (stereo not drawn) [4-Hydroxy-5-oxo-3-(pyrimidin-2-ylsulfanyl)-2-(pyrimidin-2-ylsulfanylmethyl)-2,5-dihydro-furan-2-carboxylic acid ethyl ester] |
